Measurements as given in publication PMC4089482, “Bacterial periplasmic sialic acid-binding proteins exhibit a conserved binding site” (Acta Crystallographica Section D: Biological Crystallography, 2014).
“Also recorded” adds a separate entry of the source. Where two headings read alike, the source gives them in different places.

Experiments:
[1] = molecular target: Fn-SiaP (Fusobacterium nucleatum subsp. nucleatum, UniProt Q8RDN9); experiment: ITC binding of sialic acids to Fn-SiaP; details: 20 mM HEPES pH 8.0, 10 mM NaCl, 25°C
Method: (§1) ITC measurements were performed using a MicroCal ITC system (GE Healthcare). The reaction buffer for all of the experiments was 20 mM HEPES pH 8.0, 10 mM NaCl. All titrations were carried out at 25°C. The protein concentration was determined using the Bio-Rad Bradford reagent. The concentrations of SiaP and Neu5Ac/Neu5Gc were varied in the different titrations and each binding experiment was repeated three times. The nonspecific heat released by the dilution of both the sugars and the protein was calculated by averaging the heat liberated during the last 3–5 injections after saturation. This value was then subtracted from the raw heat released during each injection. To derive the stoichiometric values, the data sets were analyzed using a single-site binding model from the Origin ITC analysis software (MicroCal). In this analysis, the values for the stoichiometry, the change in enthalpy (ΔH) and the affinity were fitted using nonlinear least-squares analysis. To derive the values for the affinity, ΔS and ΔH, data sets were globally analyzed using the single-site binding model in SEDPHAT (Vistica et al., 2004[▶]; Dam & Schuck, 2005[▶]).

[2] = molecular target: Pm-SiaP (Pasteurella multocida, UniProt Q9CKB5); experiment: ITC binding of sialic acids to Pm-SiaP
Method: as §1

[3] = molecular target: T1, Vc-SiaP (Vibrio cholerae serotype O1, UniProt Q9KR64); experiment: ITC binding of sialic acids to Vc-SiaP; details: 20 mM HEPES pH 8.0, 10 mM NaCl, 25°C
T1 construct: PCR-amplified using the forward primer 5′-[…]-3′; made in house; host or cells: Escherichia coli BL21 (DE3)
T1 sequence (Q9KR64 23-321): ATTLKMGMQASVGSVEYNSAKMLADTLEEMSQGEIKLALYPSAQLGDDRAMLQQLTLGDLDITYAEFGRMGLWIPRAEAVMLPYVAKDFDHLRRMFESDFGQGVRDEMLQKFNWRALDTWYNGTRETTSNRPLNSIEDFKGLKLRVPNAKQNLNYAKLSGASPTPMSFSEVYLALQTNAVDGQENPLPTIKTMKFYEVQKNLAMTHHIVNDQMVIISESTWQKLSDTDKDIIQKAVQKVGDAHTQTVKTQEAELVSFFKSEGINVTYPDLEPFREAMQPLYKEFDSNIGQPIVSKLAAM
Method: as §1

[4] = molecular target: T2, Hi-SiaP wild type (Haemophilus influenzae, UniProt P44542); experiment: ITC binding of Neu5Ac to wild-type Hi-SiaP
T2 construct: made in house
Method: as §1

[5] = molecular target: T3, Hi-SiaP E67A mutant (Haemophilus influenzae, UniProt P44542, E90A); experiment: ITC binding of Neu5Ac to Hi-SiaP E67A
T3 construct: made in house
Method: as §1

[6] = molecular target: T4, Hi-SiaP E186Q mutant (Haemophilus influenzae, UniProt P44542, E209Q); experiment: ITC binding of Neu5Ac to Hi-SiaP E186Q
T4 construct: made in house
Method: as §1

[7] = molecular target: T5, Hi-SiaP N187Q mutant (Haemophilus influenzae, UniProt P44542, N210Q); experiment: ITC binding of Neu5Ac to Hi-SiaP N187Q; details: 25°C
T5 construct: made in house
Method: as §1

[8] = molecular target: T6, Hi-SiaP T64K mutant (Haemophilus influenzae, UniProt P44542, T87K); experiment: ITC binding of Neu5Ac to Hi-SiaP T64K
T6 construct: made in house
Method: as §1

[9] = molecular target: T7, Hi-SiaP H209A mutant (Haemophilus influenzae, UniProt P44542, H232A); experiment: ITC binding of Neu5Ac to Hi-SiaP H209A; details: 25°C
T7 construct: made in house
Method: as §1

[10] = molecular target: T8, Hi-SiaP T64R mutant (Haemophilus influenzae, UniProt P44542, T87R); experiment: ITC binding of Neu5Ac to Hi-SiaP T64R; details: 25°C
T8 construct: made in house
Method: as §1

[11] = molecular target: T9, Hi-SiaP R127K mutant (Haemophilus influenzae, UniProt P44542, R150K); experiment: ITC binding of Neu5Ac to Hi-SiaP R127K; details: 25°C
T9 construct: made in house
Method: as §1

[12] = tested on: V. cholerae O1 biovar eltor strain N16961; experiment: Growth-curve experiment in M9 minimal medium with different sugars; assay type: cell-based, Vibrio cholerae; details: M9 minimal medium supplemented with sugar (5 mg ml^−1; all at 5 mM), 37°C
Method: V. cholerae O1 biovar eltor strain N16961 was initially grown on LB agar plates. Subsequently, 3 ml M9 minimal medium supplemented with different sugars (5 mg ml^−1) was inoculated with bacteria at an OD600 of 0.07. These cultures were incubated in a 37°C shaker at 225 rev min^−1. Optical densities at A 600 were measured at various time points using a Spectronic GENESYS 20 Visible Spectrophotometer to observe the growth pattern of V. cholerae in different compounds. The different sugars used were Neu5Ac, Neu5Gc, fetuin (a glycoprotein of foetal serum that contains different sugars and sialic acid; Spiro, 1960[▶]), asialofetuin, galactose, glycerol, D-lactic acid, succinate, sucrose, DL-malic acid and fructose, all at 5 mM concentration. Based on the readings, a graph of OD600 was plotted.

[13] = tested on: V. cholerae; experiment: ELISA (3F11) of Neu5Ac incorporation onto surface LOS; assay type: cell-based, Vibrio cholerae
Method: V. cholerae was grown on sBHI agar plates containing 100 µM Neu5Ac and LB. Cells were harvested and resuspended in PBS (20 mM Na2HPO4, 150 mM NaCl pH 7.0) at an OD600 of 0.2. The wells of Costar 96-well EIA/RIA plates (Corning) were filled with 100 µl of the bacterial suspension and six wells were used for each experiment. The plates were dried at 40°C overnight. The plates were washed four times with buffer C (72 mM sodium acetate, 165 mM sodium chloride, 0.55% Tween 20) using an ELx50 Strip Washer (BioTek Instruments, Winooski, Vermont, USA). A neuraminidase digest was performed on three wells by adding 100 µl 0.01 U ml^−1 neuraminidase (Roche Diagnostics GmbH, Mannheim, Germany) diluted in neuraminidase buffer (50 mM sodium acetate, 154 mM NaCl, 9 mM CaCl2, 25 µg ml^−1 human serum albumin pH 5.6) and the other three wells were treated with just the buffer. The plate was incubated for 6 h at 37°C and the wells were then washed. The monoclonal antibody 3F11, diluted 1/200 in buffer C, was added to each well. The plates were incubated at 37°C overnight (approximately 18 h) followed by a wash. The secondary antibody, phosphatase-labelled goat anti-mouse IgM (Kirkegaard and Perry Laboratories, Gaithersburg, Maryland, USA), diluted 1/2000 in buffer C, was added. […] When a yellow colour had developed, the absorbance at 405 nm was read using a Microplate Autoreader EL311 (BioTek Instruments).

[14] = molecular target: T2, Hi-SiaP wild type; design: method as in Johnston et al. (2008); details: taken for comparison; ref Johnston et al. (2008); cited from earlier work
[15] = ITC, 20 mM HEPES pH 8.0, 10 mM NaCl, 25°C

CC(=O)NC1C(O)CC(O)(C(=O)O)OC1C(O)C(O)CO (centres unmarked) [Neu5Ac]
H (change in enthalpy, ΔH) [1]: 9165 calmol^1
Kd [1]: 45.5 nM
T S (entropic component) [1]: 849.3 calmol^1
H (change in enthalpy, ΔH) [2, 15]: 6560 calmol^1
T S (entropic component) [2, 15]: 3948.2 calmol^1
Kd ([2]; ITC, 20 mM HEPES pH 8.0, 10 mM NaCl, 25°C, read-out: K d): 19.7 nM
Kd ([2]; fit box of the isotherm in Figure 4, single-site model, read-out: K (association constant) (converted)): 27 nM
H (change in enthalpy, ΔH) [3]: 7175 calmol^1
Kd [3]: 306 nM
T S (entropic component) [3]: 508.9 calmol^1
affinity for Neu5Ac in words [4]: nanomolar affinity
Kd ([4]; 20 mM HEPES pH 8.0, 10 mM NaCl, 25°C): 16.6 nM
H (change in enthalpy, ΔH) ([4]; 25°C): 17500 calmol^1
T S (entropic component) ([4]; 25°C): 6883 calmol^1
affinity for Neu5Ac in words [5]: micromolar affinity
H (change in enthalpy, ΔH) ([5]; 25°C): 249.5 calmol^1
T S (entropic component) ([5]; 25°C): 6168.6 calmol^1
affinity for Neu5Ac in words [6]: micromolar affinity
H (change in enthalpy, ΔH) ([6]; 25°C): 6827 calmol^1
T S (entropic component) ([6]; 25°C): 1016 calmol^1
H (change in enthalpy, ΔH) [7]: 7939 calmol^1
T S (entropic component) [7]: 40.826 calmol^1
affinity for Neu5Ac in words [8]: micromolar affinity
H (change in enthalpy, ΔH) ([8]; 25°C): 8743 calmol^1
T S (entropic component) ([8]; 25°C): 294.72 calmol^1
H (change in enthalpy, ΔH) [9]: 13360 calmol^1
T S (entropic component) [9]: 4917 calmol^1
K d / binding to Neu5Ac [10]: No measurable binding
K d / binding to Neu5Ac [11]: did not bind to Neu5Ac with measurable affinity; also recorded: No measurable binding
growth of V. cholerae in the presence of the compound (OD600) [12]: grows
3F11 binding of V. cholerae grown with Neu5Ac (ELISA) ([13]; 100 µM Neu5Ac, binding did occur after neuraminidase: sialic acid incorporated into surface LOS): did not bind 3F11
difference in absorbance before and after adding neuraminidase (level of Neu5Ac incorporation) ([13]; 3F11 ELISA, Figure S4, very little difference in LB media control): significant difference
H (change in enthalpy, ΔH) [14]: 15300 calmol^1
Kd [14]: 28 nM
T S (entropic component) [14]: 5000 calmol^1
